Among the data in patent US20170253601A1, “Substituted Pyrrolidine Compounds” (EPIZYME, INC., priority 2014, published 2017) are IC50 values, retold here.

The first test deals with T1, SMYD2 (Homo sapiens, UniProt Q9NRG4).
T1 construct: Full length SMYD2 (NP 064582.2) was cloned; His6 (N, cleaved yes); FLAG (N); made in house; host or cells: Sf9 insect cells
T1 sequence (Q9NRG4 whole entry): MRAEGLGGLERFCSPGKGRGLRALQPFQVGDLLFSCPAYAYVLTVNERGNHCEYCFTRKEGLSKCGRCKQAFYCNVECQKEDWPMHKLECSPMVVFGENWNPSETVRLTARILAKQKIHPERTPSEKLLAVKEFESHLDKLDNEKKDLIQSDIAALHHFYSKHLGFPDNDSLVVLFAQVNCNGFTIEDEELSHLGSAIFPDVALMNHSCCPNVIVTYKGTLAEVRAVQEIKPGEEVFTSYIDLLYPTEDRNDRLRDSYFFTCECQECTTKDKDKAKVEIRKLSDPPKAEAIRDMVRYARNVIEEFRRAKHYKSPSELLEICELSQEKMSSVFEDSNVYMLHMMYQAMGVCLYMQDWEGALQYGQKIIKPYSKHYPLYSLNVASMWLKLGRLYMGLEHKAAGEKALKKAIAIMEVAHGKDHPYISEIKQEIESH
In words: SMYD2 Biochemical Assay (3H-SAM, biotinylated peptide substrate, Flashplate). To be noted: IC50 values are an average of n = 1 to n = 50; read-out: SMYD2 Biochem IC50 (μM)*. The method in brief: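 Full-length His/FLAG-tagged SMYD2 expressed in Sf9 cells with tag cleaved, 1.5 nM, pre-incubated 30 min at room temperature with compound, then 10 nM 3H-SAM and 60 nM biotinylated peptide added. Buffer 20 mM Bicine pH 7.6, 1 mM TCEP, 0.005% BSG, 0.002% Tween20, 2% DMSO. Stopped with 600 uM cold SAM; 3H-peptide captured on streptavidin Flashplate; IC50 by curve fit.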
Regarding `CC(C)N1C[C@@H](NC(=O)c2cc(C3CC3)on2)[C@](C)(O)C1` [compound 245, 5-cyclopropyl-N-[(3R,4R)-4-hydroxy-4-methyl-1-(propan-2-yl)pyrrolidin-3-yl]-1,2-oxazole-3-carboxamide], the IC50 (commonly the concentration at which inhibition is half-maximal) was 6.8 µM. On the same count and under the same terms, under `C[C@@H]1CN(CC2CCNCC2)C[C@H]1NC(=O)c1cc(C2CC2)on1` (racemic) [compound 256, (±)-trans-5-cyclopropyl-N-[4-methyl-1-(piperidin-4-ylmethyl)pyrrolidin-3-yl]-1,2-oxazole-3-carboxamide] stands > 50 µM; under `CC(C)[C@H]1CN(C(C)C)C[C@H]1NC(=O)c1cc(C2CC2)on1` (racemic) [compound 219, (±)-cis-N-[1,4-bis(propan-2-yl)pyrrolidin-3-yl]-5-cyclopropyl-1,2-oxazole-3-carboxamide], > 50 µM; under `C[C@H]1CN(CC(=O)N2CCCC2)C[C@H]1NC(=O)c1cc(C2CC2)on1` (racemic) [compound 264, (±)-cis-5-cyclopropyl-N-[4-methyl-1-[2-oxo-2-(pyrrolidin-1-yl)ethyl]pyrrolidin-3-yl]-1,2-oxazole-3-carboxamide], > 50 µM. Same read-out and setting: then `CC(C)N1C[C@@H](C(F)(F)F)[C@H](NC(=O)c2cc(C3CC3)on2)C1` (racemic) [compound 252, (±)-trans-5-cyclopropyl-N-[1-(propan-2-yl)-4-(trifluoromethyl)pyrrolidin-3-yl]-1,2-oxazole-3-carboxamide], with > 50 µM. On to `COc1ccccc1N1C[C@H](C)[C@H](NC(=O)c2cc(C3CC3)on2)C1` (racemic) [compound 279, (±)-cis-5-cyclopropyl-N-[1-(2-methoxyphenyl)-4-methylpyrrolidin-3-yl]-1,2-oxazole-3-carboxamide], for which the IC50 is > 50 µM.

Regarding `CCOC(=O)C(C)CN1C[C@@H](C)[C@H](NC(=O)c2cc(C3CC3)on2)C1` (relative stereo) [compound 128, trans-ethyl 3-[3-(5-cyclopropyl-1,2-oxazole-3-amido)-4-methylpyrrolidin-1-yl]-2-methylpropanoate], the IC50 was > 50 µM. For `C[C@H]1CN(Cc2ccc(N(C)C)cc2)C[C@H]1NC(=O)c1cc(C2CC2)on1` (racemic) [compound 230, (±)-cis-5-cyclopropyl-N-[1-{[4-(dimethyl-amino)phenyl]methyl}-4-methylpyrrolidin-3-yl]-1,2-oxazole-3-carboxamide], the IC50 came out at 4.08 µM. Regarding `C[C@@H]1CN(Cc2cccc3c2OCO3)C[C@H]1NC(=O)c1cc(C2CC2)on1` (racemic) [compound 135, (±)-trans-N-[1-(2H-1,3-benzodioxol-4-ylmethyl)-4-methyl-pyrrolidin-3-yl]-5-cyclopropyl-1,2-oxazole-3-carboxamide], the IC50 was > 50 µM.

Turning to `C[C@H]1CN(c2ccccn2)C[C@H]1NC(=O)c1cc(C2CC2)on1` (racemic) [compound 318, (±)-cis-5-cyclopropyl-N-[4-methyl-1-(pyridin-2-yl)pyrrolidin-3-yl]-1,2-oxazole-3-carboxamide], the IC50 was > 50 µM. Same read-out and setting: under `Cc1nn(C)cc1CN1C[C@@H](C)[C@H](NC(=O)c2cc(C3CC3)on2)C1` (racemic) [compound 183, (±)-trans-5-cyclopropyl-N-[1-[(1,3-dimethyl-1H-pyrazol-4-yl)methyl]-4-methylpyrrolidin-3-yl]-1,2-oxazole-3-carboxamide] stands > 50 µM; under `CC(C)c1cc(C(=O)N[C@@H]2C[C@@H](CNC(=O)c3ccccc3)N(C3CC3)C2)no1` (stereo in doubt) [compound 242, (±)-trans-N-[1-cyclo-propyl-5-[(phenyl-formamido)methyl]pyrrolidin-3-yl]-5-(propan-2-yl)-1,2-oxazole-3-carboxamide], > 50 µM; under `C[C@H]1CN(c2ccc(Cl)cc2)C[C@H]1NC(=O)c1cc(C2CC2)on1` (racemic) [compound 273, (±)-cis[N-[1-(4-chloro-phenyl)-4-methyl-pyrrolidin-3-yl]-5-cyclopropyl-1,2-oxazole-3-carboxamide], > 50 µM.

With `C[C@@H]1CN(Cc2c[nH]c3ccccc23)C[C@H]1NC(=O)c1cc(C2CC2)on1` (racemic) [compound 160, (±)-trans-5-cyclopropyl-N-[1-(1H-indol-3-ylmethyl)-4-methyl-pyrrolidin-3-yl]-1,2-oxazole-3-carboxamide], the IC50 was > 50 µM.

Turning to `COc1ccc(CN2C[C@H](C)[C@H](NC(=O)c3cc(C4CC4)on3)C2)c(OC)c1` (racemic) [compound 212, (±)-cis-5-cyclopropyl-N-[1-[(2,4-dimethoxy-phenyl)methyl]-4-methylpyrrolidin-3-yl]-1,2-oxazole-3-carboxamide], the IC50 amounted to 5.23 µM. Same read-out and setting: under `C[C@H]1CN(CC(F)F)C[C@H]1NC(=O)c1cc(C2CC2)on1` (racemic) [compound 216, (±)-cis-5-cyclopropyl-N-[1-(2,2-difluoroethyl)-4-methylpyrrolidin-3-yl]-1,2-oxazole-3-carboxamide] stands > 50 µM; under `C[C@H]1CN(Cc2ccccn2)C[C@H]1NC(=O)c1cc(C2CC2)on1` (racemic) [compound 121, (±)-cis-5-cyclopropyl-N-[4-methyl-1-(pyridin-2-ylmethyl)pyrrolidin-3-yl]-1,2-oxazole-3-carboxamide], 15.7 µM. Same read-out and setting: under `C[C@@H]1CN(CC(=O)N2CCCC2)C[C@H]1NC(=O)c1cc(C2CC2)on1` (racemic) [compound 293, (±)-trans-5-cyclopropyl-N-{4-methyl-1-[2-oxo-2-(pyrrolidin-1-yl)ethyl]pyrrolidin-3-yl}-1,2-oxazole-3-carboxamide] stands > 50 µM; under `C[C@H]1CN(CC2CCOCC2)C[C@H]1NC(=O)c1cc(C2CC2)on1` (racemic) [compound 175, (±)-cis-5-cyclopropyl-N-[4-methyl-1-(oxan-4-ylmethyl)pyrrolidin-3-yl]-1,2-oxazole-3-carboxamide], 3.95 µM; under `C[C@@H]1CN(CC(=O)N2CCN(C)CC2)C[C@H]1NC(=O)c1cc(C2CC2)on1` (racemic) [compound 294, (±)-trans-5-cyclopropyl-N-{4-methyl-1-[2-(4-methylpiperazin-1-yl)-2-oxoethyl]pyrrolidin-3-yl}-1,2-oxazole-3-carboxamide], > 50 µM.

`C[C@@H]1CN(CCC2CCN(C(=O)OC(C)(C)C)CC2)C[C@H]1NC(=O)c1cc(C2CC2)on1` (racemic) [compound 132]: the IC50 is > 50 µM.

Still in this test, the particulars now being: Table 1; average of n = 1 to n = 50; read-out: SMYD2 Biochem IC50.
Take `C[C@@H]1CN(C2CC2)C[C@H]1NC(=O)c1cc(C2CC2)on1` (racemic) [Cpd. No. 46, (±)-trans-5-cyclopropyl-N-(1-cyclopropyl-4-methylpyrrolidin-3-yl)isoxazole-3-carboxamide]: the IC50 was determined as 2.75 µM. On the same count and under the same terms, under `C[C@@H]1CN(C)C[C@H]1NC(=O)c1cc(C2CC2)on1` (racemic) [compound 39] stands 33.6 µM; under `O=C(N[C@@H]1CN(C2CC2)C[C@H]1O)c1cc(C2CC2)on1` (racemic) [compound 47, (±)-trans-5-cyclopropyl-N-(1-cyclopropyl-4-hydroxypyrrolidin-3-yl)isoxazole-3-carboxamide], > 50 µM.

The test is the same for the next values; noted with them: Table 2; average of n = 1 to n = 50; read-out: SMYD2 Biochem IC50.
As to `C[C@@H]1CN(C2CCCCC2)C[C@H]1NC(=O)c1cc(C2CC2)on1` (racemic) [compound 96, (±)-trans-N-(1-cyclohexyl-4-methylpyrrolidin-3-yl)-5-cyclopropylisoxazole-3-carboxamide], the IC50 was > 50 µM.
